Assay: Log P by HPLC on reversed phase columns (EEC directive 79/831 Annex V.A8; methods [a], [b], [c])
Type: physicochemical
Conditions: not given
Protocol: Measurement of Log P values was performed according to EEC directive 79/831 Annex V.A8 by HPLC (High Performance Liquid Chromatography) on reversed phase columns with the following methods: • ^[a] Log P value is determined by measurement of LC-UV, in an acidic range, with 0.1% formic acid in water and acetonitrile as eluent (linear gradient from 10% acetonitrile to 95% acetonitrile). • ^[b] Log P value is determined by measurement of LC-UV, in a neutral range, with 0.001 molar ammonium acetate solution in water and acetonitrile as eluent (linear gradient from 10% acetonitrile to 95% acetonitrile). • ^[c] Log P value is determined by measurement of LC-UV, in an acidic range, with 0.1% phosphoric acid and acetonitrile as eluent (linear gradient from 10% acetonitrile to 95% acetonitrile).
If more than one Log P value is available within the same method, all the values are given and separated by “+”.
Calibration was done with straight-chain alkan2-ones (with 3 to 16 carbon atoms) with known Log P values (measurement of Log P values using retention times with linear interpolation between successive alkanones). Lambda-max-values were determined using UV-spectra from 200 nm to 400 nm and the peak values of the chromatographic signals.

| Structure (SMILES) | LogP |
| --- | --- |
| N#Cc1cncn1CC(O)(CC1CC1)c1cc(Cl)c(Cl)c(Cl)c1 (stereo not drawn) [I-529] | 3.22^[a] |
| CC(C)CC#CC(O)(CC1CC1)Cn1cncc1C#N (stereo not drawn) [I-451] | 2.52^[a] |
| N#Cc1cncn1CC(O)(c1cc(Cl)c(F)cc1F)C1(F)CC1 (stereo not drawn) [I-577] | 2.42^[a] |
| C[Si](C)(C)C#Cc1ccc(C(O)(Cn2cncc2C#N)C2(F)CC2)c(F)c1 (stereo not drawn) [I-608] | 3.79^[a] |
| CC(C)(C)CC(O)(Cn1cncc1C#N)c1ccccc1F (stereo not drawn) [I-274] | 2.92^[a] |
| CC(C)(C)C(O)(Cn1cncc1C#N)c1ccc(Cl)cc1Cl (stereo not drawn) [I-310] | 3.37^[a] |
| N#Cc1cncn1CC(O)(c1cc(Cl)c(F)c(Cl)c1)C1(F)CC1 (stereo not drawn) [I-477] | 2.74^[a] |
| C[Si](C)(CCC(O)(Cn1cncc1C#N)C1(F)CC1)c1ccccc1 (stereo not drawn) [I-668] | 3.30^[a] |
| CCCCC(O)(Cn1cncc1C#N)c1ccc(F)cc1F (stereo not drawn) [I-262] | 2.73^[a] |
| N#Cc1cncn1CC(O)(c1ccc(C#CC2CC2)cc1F)C1(F)CC1 (stereo not drawn) [I-643] | 2.92^[a] |
| N#Cc1cncn1CC(O)(c1ccc(Cl)cc1Br)C1CC1 (stereo not drawn) [I-405] | 2.80^[a] |
| N#Cc1cncn1CC(O)(c1cc(F)c(Cl)c(Cl)c1)C1(F)CC1 (stereo not drawn) [I-535] | 2.78^[a] |
| N#Cc1cncn1CC(O)(c1cnc(Br)cc1Cl)C1(F)CC1 (stereo not drawn) [I-686] | 1.97^[a] |
| N#Cc1cncn1CC(O)(c1cccc(F)c1Cl)C1(F)CC1 (stereo not drawn) [I-555] | 2.12^[a] |
| N#Cc1cncn1CC(O)(c1cc(Cl)cc(Cl)c1Cl)C1(F)CC1 (stereo not drawn) [I-612] | 2.66^[a] |
| C[Si](C)(C)CC(O)(Cn1cncc1C#N)c1ccc(Cl)cc1 (stereo not drawn) [I-224] | 3.35^[a] |
| N#Cc1cncn1CC(O)(c1ccc(C#CC2CC2)cc1Cl)C1(Cl)CC1 (stereo not drawn) [I-361] | 3.25^[a] |
| N#Cc1cncn1CC(O)(CCCC1CCCCC1)C1CCC1 (stereo not drawn) [I-665] | 4.16^[a] |
| N#Cc1cncn1CC(O)(c1ccc(Cl)cc1F)C1CCCCC1 (stereo not drawn) [I-482] | 3.42^[a] |
| OC(CCCC1CCCCC1)(Cn1cncc1C(F)(F)F)C1(Cl)CC1 (stereo not drawn) [I-676] | 5.19^[a] |
| N#Cc1cncn1CC(O)(c1ccc(Cl)cc1)C1(F)CC1 (stereo not drawn) [I-231] | 2.27^[a] |
| OC(C#CC1CCCC1)(Cn1cncc1C(F)(F)F)C1(Cl)CC1 (stereo not drawn) [I-603] | 3.37^[a] |
| CCCC(O)(Cn1cncc1C#N)c1ccc(Cl)cc1Cl (stereo not drawn) [I-292] | 3.14^[a] |

| Structure (SMILES) | LogP |
| --- | --- |
| N#Cc1cncn1CC(O)(c1cc(Cl)cc(Cl)c1F)C1(F)CC1 (stereo not drawn) [I-572] | 2.66^[a] |
| CCC(C)C(O)(Cn1cncc1C#N)c1ccc(Cl)cc1 (single isomer, unassigned) [I-326] | 2.78^[a] |
| N#Cc1cncn1CC(O)(c1ccc(F)cc1Cl)C1(F)CC1 (stereo not drawn) [I-349] | 2.22^[a] |
| C[Si](C)(C)C#CC(O)(Cn1cncc1C#N)C1(Cl)CC1 (stereo not drawn) [I-318] | 2.76^[a] |
| N#Cc1cncn1CC(O)(c1ccc(F)cc1Br)C1CCCCC1 (stereo not drawn) [I-479] | 3.46^[a] |
| C=CCC(O)(Cn1cncc1C#N)C1(Cl)CC1 (stereo not drawn) [I-669] | 1.98^[a] |
| N#Cc1cncn1CC(O)(c1cc(F)c(F)cc1Cl)C1(Cl)CC1 (stereo not drawn) [I-584] | 2.49^[a] |
| N#Cc1cncn1CC(O)(c1cc(Cl)c(F)cc1Cl)C1(F)CC1 (stereo not drawn) [I-575] | 2.54^[a] |
| C[Si](C)(C)C#Cc1ccc(C(O)(Cn2cncc2C#N)C2(Cl)CC2)c(Cl)c1 (stereo not drawn) [I-366] | 4.24^[a] |
| N#Cc1cncn1CC(O)(c1cc(Cl)c(F)cc1Br)C1(F)CC1 (stereo not drawn) [I-687] | 2.61^[a] |
| N#Cc1cncn1CC(O)(c1ccc(Cl)c(Cl)c1F)C1(F)CC1 (stereo not drawn) [I-638] | 2.58^[a] |
| N#Cc1cncn1CC(O)(c1cccc(Cl)c1Cl)C1(F)CC1 (stereo not drawn) [I-438] | 2.39^[a] |
| CC(C)(C)C(O)(Cn1cncc1C#N)c1ccc(F)c(F)c1 (stereo not drawn) [I-483] | 2.66^[a] |
| N#Cc1cncn1CC(O)(CCC1CCCC1)C1(F)CC1 (stereo not drawn) [I-598] | 3.00^[a] |
| CC(C)(C)C#Cc1ccc(C(O)(Cn2cncc2C#N)C2(Cl)CC2)c(Cl)c1 (stereo not drawn) [I-657] | 3.99^[a] |
| CC(C)(C)C(O)(Cn1cncc1C#N)c1ccc(Cl)cc1F (stereo not drawn) [I-342] | 3.00^[a] |
| C[Si](C)(C)C=CC(O)(Cn1cncc1C(F)(F)F)C1(Cl)CC1 (stereo not drawn) [I-690] | 3.85^[a] |
| CC(C)(C)CC(O)(Cn1cncc1C#N)c1ccccc1Br (stereo not drawn) [I-308] | 3.27^[a] |
| N#Cc1cncn1CC(O)(c1ccc(Cl)cc1F)C1CCC1 (stereo not drawn) [I-448] | 2.86^[a] |
| N#Cc1cncn1CC(O)(c1ccc(Cl)cc1F)C1CC1 (stereo not drawn) [I-413] | 2.50^[a] |
| CC(C)C(O)(Cn1cncc1C#N)c1ccc(F)cc1Cl (stereo not drawn) [I-425] | 2.60^[a] |
| N#Cc1cncn1CC(O)(c1cnc(Cl)cc1Cl)C1(F)CC1 (stereo not drawn) [I-526] | 1.90^[a] |
| N#Cc1cncn1CC(O)(c1cc(F)c(Br)cc1Cl)C1(F)CC1 (stereo not drawn) [I-682] | 2.63^[a] |

Further lines, results first:

| LogP | Structure (SMILES) |
| --- | --- |
| 2.48^[a] | N#Cc1cncn1CC(O)(c1ccc(F)cc1Br)C1(Cl)CC1 (stereo not drawn) [I-387] |
| 3.09^[a] | N#Cc1cncn1CC(O)c1ccc(Oc2ccc(Cl)cc2)cc1C(F)F (stereo not drawn) [I-72] |
| 2.80^[a] | N#Cc1cncn1CC(O)(c1ccc(C(F)(F)F)cc1Cl)C1(Cl)CC1 (stereo not drawn) [I-264] |
| 3.73^[a] | N#CCOC(Cn1cncc1C#N)c1ccc(Oc2ccc(Br)cc2)cc1C(F)(F)F (stereo not drawn) [I-87] |
| 3.25^[a] | CCCCC(O)(Cn1cncc1C#N)c1ccc(OC(F)(F)F)cc1 (stereo not drawn) [I-265] |
| 3.85^[a] | CC(C)(C)CC(O)(Cn1cncc1C#N)c1ccc(C(F)(F)F)cc1Cl (stereo not drawn) [I-268] |
| 2.82^[a] | CC(O)(Cn1cncc1Cl)c1ccc(Oc2ccc(Cl)cc2)cc1Br (stereo not drawn) [I-171] |
| 1.53^[a] | NC(=S)c1cncn1CC(O)(CC1CC1)c1ccc(F)cc1F (stereo not drawn) [I-484] |
| 3.27^[a] | CC(=O)c1cncn1CC(C)(O)c1ccc(Oc2ccc(C(F)(F)F)cc2)cc1C(F)(F)F (stereo not drawn) [I-207] |
| 1.98^[a] | N#Cc1cncn1CC(O)(c1ccc(F)cc1)C1CC1 (stereo not drawn) [I-411] |
| 4.25^[a] | CC(O)(Cn1cncc1C(F)(F)F)c1ccc(Oc2ccc(Cl)cc2)cc1Cl (stereo not drawn) [I-183] |
| 2.25^[a] | OC(Cn1cncc1F)c1ccc(Oc2ccc(Cl)cc2)nc1C(F)(F)F (stereo not drawn) [I-123] |
| 2.51^[a] | OC(Cn1cncc1Cl)c1ccc(Oc2ccc(I)cc2)cc1F (stereo not drawn) [I-31] |
| 2.13^[a] | CC(O)(Cn1cncc1F)c1cnc(Oc2ccc(C(F)(F)F)cc2)cc1Cl (stereo not drawn) [I-244] |
| 2.70^[a] | N#Cc1cncn1CC(O)c1ccc(Oc2ccccc2)cc1Cl (stereo not drawn) [I-76] |
| 3.04^[a] | CC(O)(Cn1cncc1Cl)c1ccc(Oc2ccc(I)cc2)cc1Cl (stereo not drawn) [I-166] |
| 2.82^[a] | OC(Cn1cncc1Cl)c1ccc(Oc2ccc(C(F)(F)F)cc2)cc1Cl (stereo not drawn) [I-09] |
| 1.37^[a] | N#Cc1cncn1CC(O)c1ccc(F)cc1 (stereo not drawn) [I-117] |
| 3.99^[a] | COC(=O)COC(Cn1cncc1C#N)c1ccc(Oc2ccc(Br)cc2)cc1C(F)(F)F (stereo not drawn) [I-94] |
| 2.55^[a] | N#Cc1cncn1CC(O)c1ccc(Oc2ccc(C(F)(F)F)cc2)nc1 (stereo not drawn) [I-129] |

| LogP | Structure (SMILES) |
| --- | --- |
| 3.79^[a] | COC(Cn1cncc1C#N)c1ccc(Oc2ccc(Br)cc2)cc1F (stereo not drawn) [I-55] |
| 2.14^[a] | OC(Cn1cncc1Cl)c1ccc(Oc2ccc(Cl)nc2)cc1C(F)(F)F (stereo not drawn) [I-19] |
| 2.98^[a] | CC(O)(Cn1cncc1Br)c1ccc(Oc2ccc(C(F)(F)F)cc2)cc1C(F)(F)F (stereo not drawn) [I-199] |
| 2.41^[a] | CC(O)(Cn1cncc1Cl)c1cnc(Oc2ccc(Cl)cc2)cc1Cl (stereo not drawn) [I-162] |
| 2.73^[a] | N#Cc1cncn1CC(O)(c1ccc(Br)cc1Cl)C1(Cl)CC1 (stereo not drawn) [I-333] |
| 2.28^[a] | OC(Cn1cncc1Cl)c1ccc(Oc2ccc(F)cc2)cc1Cl (stereo not drawn) [I-03] |
| 2.23^[a] | OC(Cn1cncc1Br)c1ccc(Oc2ccc(Cl)cc2)cc1 (stereo not drawn) [I-18] |
| 2.23^[a] | OC(Cn1cncc1F)c1cnc(Oc2ccc(Cl)cc2)cc1C(F)(F)F (stereo not drawn) [I-119] |
| 2.90^[a] | CC(C)(C)CC(O)(Cn1cncc1C#N)c1ccc(F)cc1 (stereo not drawn) [I-226] |
| 3.10^[a] | N#Cc1cncn1CC(O)(CC1CC1)c1ccc(Cl)cc1C(F)(F)F (stereo not drawn) [I-460] |
| 2.35^[a] | N#Cc1cncn1CC(O)(c1ccccc1C(F)(F)F)C1(Cl)CC1 (stereo not drawn) [I-344] |
| 2.76^[a] | CC(O)(Cn1cncc1C#N)c1ccc(Oc2ccc(C(F)(F)F)nc2)nc1C(F)(F)F (stereo not drawn) [I-294] |
| 3.46^[a] | N#Cc1cncn1CC(O)c1ccc(Oc2ccc(Br)cc2)cc1C(F)(F)F (stereo not drawn) [I-36] |
| 3.01^[a] | CC(O)(Cn1cncc1Cl)c1ccc(Oc2ccc(C(F)(F)F)cc2)cc1C(F)(F)F (stereo not drawn) [I-196] |
| 2.35^[a] | CC(C)C(O)(Cn1cncc1C#N)c1ccc(F)cc1F (stereo not drawn) [I-419] |
| 2.96^[a] | OC(Cn1cncc1Br)c1ccc(Oc2ccc(C(F)(F)F)cc2)cc1C(F)(F)F (stereo not drawn) [I-38] |
| 2.27^[a] | CCC(O)(Cn1cncc1C#N)c1ccccc1C(F)(F)F (stereo not drawn) [I-329] |
| 2.28^[a] | OC(Cn1cncc1F)c1ccc(Oc2ccc(Br)cc2)nc1C(F)(F)F (stereo not drawn) [I-103] |
| 3.33^[a] | N#Cc1cncn1CC(O)c1ccc(Oc2ccc(Br)cc2)cc1Br (stereo not drawn) [I-47] |

Same assay, conditions: reversed phase HPLC column; method [a], HPLC on reversed phase columns

| chromatographic logP | Structure (SMILES) |
| --- | --- |
| 3.48 | N#Cc1cncn1CC(O)(C=CC1CCCCC1)C1(Cl)CC1 (stereo not drawn) [I-663, 1-[2-(1-chlorocyclopropyl)-4-cyclohexyl-2-hydroxybut-3-en-1-yl]-1H-imidazole-5-carbonitrile] |

Same assay, conditions: reversed phase HPLC column; method [a]: LC-UV, acidic range, 0.1% formic acid in water and acetonitrile as eluent (linear gradient from 10% to 95% acetonitrile)

| chromatographic logP | Structure (SMILES) |
| --- | --- |
| 1.32 | O=C(Cn1cncc1Br)c1ccc(F)cc1F [IX-121] |
